Test results published in patent US20160244437A1, “SUBSTITUTED PHENYLALANINE DERIVATIVES” (BAYER PHARMA AKTIENGESELLSCHAFT, priority 2013, published 2016).
Where a name gives a salt, the structure may show the parent alone.

Key:
human factor XIa = molecular target: T1, human factor XIa (Homo sapiens, UniProt P03951); assay: Measurement of FXIa inhibition (fluorogenic peptide substrate Boc-Glu(OBzl)-Ala-Arg-AMC); type: biochemical; conditions: factor XIa from Kordia 0.45 nM, 15 min pre-incubation, 30 min at 22° C., fluorescence
T1 construct: purchased Kordia
T1 sequence (P03951 388-625 limits assumed): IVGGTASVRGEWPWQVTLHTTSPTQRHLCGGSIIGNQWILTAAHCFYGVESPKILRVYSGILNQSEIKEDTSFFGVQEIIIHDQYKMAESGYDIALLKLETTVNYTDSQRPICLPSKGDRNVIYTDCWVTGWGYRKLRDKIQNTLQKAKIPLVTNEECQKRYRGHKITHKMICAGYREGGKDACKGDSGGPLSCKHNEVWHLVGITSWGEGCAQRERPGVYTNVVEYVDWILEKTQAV
T1 sequence (P03951 19-387 partner limits assumed): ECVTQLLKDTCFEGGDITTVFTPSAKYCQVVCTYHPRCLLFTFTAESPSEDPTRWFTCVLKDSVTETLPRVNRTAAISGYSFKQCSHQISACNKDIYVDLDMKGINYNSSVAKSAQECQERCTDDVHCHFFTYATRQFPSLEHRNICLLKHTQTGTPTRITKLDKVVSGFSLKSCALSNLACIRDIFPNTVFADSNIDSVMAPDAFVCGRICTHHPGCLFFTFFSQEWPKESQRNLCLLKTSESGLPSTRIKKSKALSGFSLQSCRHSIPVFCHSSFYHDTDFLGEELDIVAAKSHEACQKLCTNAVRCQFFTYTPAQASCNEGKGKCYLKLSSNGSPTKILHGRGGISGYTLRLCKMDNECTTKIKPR
Experimental: The factor XIa inhibition of the substances according to the invention is determined using a biochemical test system which utilizes the reaction of a peptidic factor XIa substrate to determine the enzymatic activity of human factor XIa. Here, factor XIa cleaves from the peptic factor XIa substrate the C-terminal aminomethylcoumarin (AMC), the fluorescence of which is measured. The determinations are carried out in microtitre plates.
Test substances are dissolved in dimethyl sulphoxide and serially diluted in dimethyl sulphoxide (3000 μM to 0.0078 μM; resulting final concentrations in the test: 50 μM to 0.00013 μM). In each case 1 μl of the diluted substance solutions is placed into the wells of white microtitre plates from Greiner (384 wells). Subsequently, the following are added successively: 20 μl of assay buffer (50 mmol/l Tris buffer pH 7.4; 100 mmol/l sodium chloride; 5 mmol/l calcium chloride; 0.1% bovine serum albumin) and 20 μl of factor XIa from Kordia (0.45 nM in assay buffer). After 15 min of incubation, the enzyme reaction is started by addition of 20 μl of the factor XIa substrate Boc-Glu(OBzl)-Ala-Arg-AMC dissolved in assay buffer (10 μM in assay buffer) from Bachem, the mixture is incubated at room temperature (22° C.) for 30 min and fluorescence is then measured (excitation: 360 nm, emission: 460 nm). The measured emissions of the test batches with test substance are compared to those of control batches without test substance (only dimethyl sulphoxide instead of test substance in dimethyl sulphoxide), and IC50 values are calculated from the concentration/activity relationships.

human and animal plasma = assay: Determination of anticoagulatory activity: activated partial thromboplastin time (aPTT) in plasma; conditions: concentration of test substance which brings about a 1.5-fold extension of the aPTT; plasma in vitro, C.K. Prest kit
Experimental: The anticoagulatory activity of the test substances is determined in vitro in human and animal plasma (for example mouse, rat, rabbit, pig and dog plasma). To this end, blood is drawn off in a mixing ratio of sodium citrate/blood of 1:9 using a 0.11 molar sodium citrate solution as receiver. Immediately after the blood has been drawn off, it is mixed thoroughly and centrifuged at about 4000 g for 15 minutes. The supernatant is pipetted off.
The activated partial thromboplastin time (aPTT) is determined in the presence of varying concentrations of test substance or the corresponding solvent using a commercial test kit (C.K. Prest from Diagnostica Stago). The test compounds are incubated with the plasma and the PTT reagent (cephalin, kaolin) at 37° C. for 3 minutes. Coagulation is then started by addition of a 25 mM aqueous calcium chloride solution, and the time when coagulation occurs is determined. The concentration of test substance which brings about a 1.5-fold extension of the aPTT is determined.

Row | IC50 (human factor XIa) [nM] | Compound | aPTT (human and animal plasma) [µmol/L]
1 | 0.4 | Cc1ccc(S(=O)(=O)NCc2ccccc2)cc1-c1cccc(C[C@H](NC(=O)[C@H]2CC[C@H](CN)CC2)C(=O)Nc2ccc(-c3nnn[nH]3)cc2)c1 [Example 1, trans-4-(Aminomethyl)-N-[(2S)-3-[5′-(benzylsulphamoyl)-2′-methylbiphenyl-3-yl]-1-oxo-1-{[4-(1H-tetrazol-5-yl)phenyl]amino}propan-2-yl]cyclohexanecarboxamide hydrochloride] | 0.1
2 | 1.1 | Cc1ccc(S(=O)(=O)N2CCCC2)cc1-c1cccc(C[C@H](NC(=O)[C@H]2CC[C@H](CN)CC2)C(=O)Nc2ccc(-c3nnn[nH]3)cc2)c1 [Example 2, trans-4-(Aminomethyl)-N-[(2S)-3-[2′-methyl-5′-(pyrrolidin-1-ylsulphonyl)biphenyl-3-yl]-1-oxo-1-{[4-(1H-tetrazol-5-yl)phenyl]amino}propan-2-yl]cyclohexanecarboxamide hydrochloride] | 0.08
3 | 1.5 | Cc1ccc(S(=O)(=O)N(C)C)cc1-c1cccc(C[C@H](NC(=O)[C@H]2CC[C@H](CN)CC2)C(=O)Nc2ccc(-c3nnn[nH]3)cc2)c1 [Example 4, trans-4-(Aminomethyl)-N-[(2S)-3-[5′-(dimethylsulphamoyl)-2′-methylbiphenyl-3-yl]-1-oxo-1-{[4-(1H-tetrazol-5-yl)phenyl]amino}propan-2-yl]cyclohexanecarboxamide hydrochloride] | 0.21
4 | 3.4 | NC[C@H]1CC[C@H](C(=O)N[C@@H](Cc2cccc(-c3cccc(S(N)(=O)=O)c3)c2)C(=O)Nc2ccc(-c3nnn[nH]3)cc2)CC1 [Example 5, trans-4-(Aminomethyl)-N-[(2S)-1-oxo-3-(3′-sulphamoylbiphenyl-3-yl)-1-{[4-(1H-tetrazol-5-yl)phenyl]amino}propan-2-yl]cyclohexanecarboxamide hydrochloride] | 0.23
5 | 2.4 | NC[C@H]1CC[C@H](C(=O)N[C@@H](Cc2cccc(-c3ccnc(N4CCOCC4)c3)c2)C(=O)Nc2ccc(-c3nn[nH]n3)cc2)CC1 [Example 85, N-alpha-{[trans-4-(Aminomethyl)cyclohexyl]carbonyl}-3-[2-(morpholin-4-yl)pyridin-4-yl]-N-[4-(2H-tetrazol-5-yl)phenyl]-L-phenylalaninamide hydrochloride] | 
6 | 29 | NC[C@H]1CC[C@H](C(=O)N[C@@H](Cc2cccc(-c3cnc(N4CCOCC4)nc3)c2)C(=O)Nc2ccc(-c3n[nH]c(=O)[nH]3)cc2)CC1 [Example 88, N-alpha-{[trans-4-(Aminomethyl)cyclohexyl]carbonyl}-3-[2-(morpholin-4-yl)pyrimidin-5-yl]-N-[4-(5-oxo-4,5-dihydro-1H-1,2,4-triazol-3-yl)phenyl]-L-phenylalaninamide hydrochloride] | 
7 |  | Cc1cnccc1-c1cccc(C[C@H](NC(=O)[C@H]2CC[C@H](CN)CC2)C(=O)Nc2ccc(-c3n[nH]c(=O)[nH]3)cc2)c1 [Example 89, N-alpha-{[trans-4-(Aminomethyl)cyclohexyl]carbonyl}-3-(3-methylpyridin-4-yl)-N-[4-(5-oxo-4,5-dihydro-1H-1,2,4-triazol-3-yl)phenyl]-L-phenylalaninamide hydrochloride] | 0.46
8 | 8.9 | NC[C@H]1CC[C@H](C(=O)N[C@@H](Cc2cccc(-c3cnc(O)nc3)c2)C(=O)Nc2ccc(-c3nnn[nH]3)cc2)CC1 [Example 99, N-alpha-{[trans-4-(Aminomethyl)cyclohexyl]carbonyl}-3-(2-hydroxypyrimidin-5-yl)-N-[4-(1H-tetrazol-5-yl)phenyl]-L-phenylalaninamide hydrochloride] | 
9 | 8.6 | COCc1nnc(-c2ccc(NC(=O)[C@H](Cc3cccc(-c4ccccc4C(C)C)c3)NC(=O)[C@H]3CC[C@H](CN)CC3)cc2)[nH]1 [Example 104, trans-4-(Aminomethyl)-N-[(2S)-3-(2′-isopropylbiphenyl-3-yl)-1-({4-[3-(methoxymethyl)-4H-1,2,4-triazol-5-yl]phenyl}amino)-1-oxopropan-2-yl]cyclohexanecarboxamide hydrochloride] | 
